The record followed here is ChEMBL document CHEMBL1201862, “PubChem BioAssay data set” (2004).

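Tested at 5 concentrations; 48 h exposure; 96-well plates; endpoints linearly interpolated, else capped at highest concentration. Here, GI50 denotes the concentration required for 50% inhibition of growth.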 The source made the active and inactive calls. Rule as the data show it: active = GI50 up to about 1.1 µM and inactive = higher.

Test systems include EKVX; UACC-62; SF-295; Malme-3M; KM12; SF-539; NCI-H226; HCT-116; TK-10; DU-145; A549; UO-31; HCT-15; OVCAR-3; BT-549; HCC 2998; OVCAR-8; SK-OV-3; OVCAR-5; M14.
Holding throughout (assay): inhibition of tumour cell growth, NCI panel, 48 h

For the compound `CCCCCCCCCCCCC(O)[C@H]1CC[C@H](C(O)CCCCCC(=O)CCCCC2CC(C(C)=O)C(=O)O2)O1` (stereo not given in full), the GI50 in the test with EKVX was 5.69 µM (inactive); in the test with UACC-62, 4.67 µM (inactive); in the test on SF-295 it was 4.95 µM (inactive); in the test on Malme-3M it was 11.5 µM (inactive); with KM12, 8.77 µM (inactive); with SF-539 it was 14.1 µM (inactive). The GI50 with NCI-H226 is 17.6 µM (inactive); in the test on HCT-116 it was 1.02 µM (active); in the test on TK-10, 14.1 µM (inactive); with DU-145, > 43.6 µM (inactive); with A549, 3.7 µM (inactive); in the test on UO-31, 8.97 µM (inactive). Moreover, the GI50 in the test with HCT-15 is 8.18 µM; in the test on OVCAR-3, 4.25 µM (inactive); in the test with BT-549 it was 15 µM (inactive); in the test with HCC 2998, 16.2 µM (inactive); with OVCAR-8 it was 8.97 µM (inactive); in the test with SK-OV-3, 9.68 µM (inactive). For the same compound, the GI50 in the test with OVCAR-5 was 18.4 µM (inactive); in the test with M14, 8.77 µM (inactive).

For the compound `CC(C)(Cl)C(Br)CCC(C)(Br)C(Br)CBr` (stereo not given), the GI50 is 25.4 µM (inactive) in the test with EKVX; 17.7 µM (inactive) with UACC-62; 17.7 µM (inactive) with SF-295; 17.4 µM (inactive) with Malme-3M; 17.8 µM (inactive) in the test with KM12; 15.6 µM (inactive) in the test on SF-539. The GI50 was 18.8 µM (inactive) in the test on NCI-H226; 16 µM (inactive) in the test with HCT-116; 27.5 µM (inactive) with TK-10; 19.6 µM (inactive) with DU-145; 30.1 µM (inactive) with A549; 19 µM (inactive) in the test with UO-31. Also, the GI50 is 17.1 µM in the test with HCT-15; 15.9 µM (inactive) with OVCAR-3; 22.3 µM (inactive) in the test with BT-549; 13.1 µM (inactive) with HCC 2998; 16.2 µM (inactive) with OVCAR-8; 29.1 µM (inactive) in the test with SK-OV-3. Moreover, the GI50 with OVCAR-5 is 15.7 µM (inactive); with M14, 17.7 µM (inactive).

In the case of `CCOC(=O)CN1C(=O)C(=O)N(c2ccc(OC)c3ccccc23)C1=O`, the GI50 in the test on EKVX, in the test on UACC-62, in the test on SF-295, with Malme-3M, with KM12 and with SF-539 was > 100 µM (inactive) throughout. Moreover, the GI50 with NCI-H226 is 45.1 µM (inactive); in the test with HCT-116, > 100 µM (inactive); in the test on TK-10 it was > 100 µM (inactive); in the test on DU-145, > 100 µM (inactive); with A549 it was > 100 µM (inactive); with UO-31, 34.6 µM (inactive). For the same compound, the GI50 is more than 100 µM in the test with HCT-15; > 100 µM (inactive) in the test on OVCAR-3; > 100 µM (inactive) with BT-549; > 100 µM (inactive) in the test on HCC 2998; > 100 µM (inactive) in the test on OVCAR-8; > 100 µM (inactive) in the test with SK-OV-3. In addition, the GI50 in the test on OVCAR-5 and in the test on M14 was > 100 µM (inactive) throughout.

Take `C/C(=N/NC(=S)Nc1ccccc1Cl)c1ccccn1`: the GI50 is 0.098 µM (active) with EKVX; 0.173 µM (active) in the test with UACC-62; 0.0986 µM (active) in the test with SF-295; 0.429 µM (active) in the test on Malme-3M; 0.0705 µM (active) with KM12; 1.11 µM (active) in the test on SF-539. Besides, the GI50 with NCI-H226 was < 0.0401 µM (active); in the test with HCT-116 it was < 0.0129 µM (active); in the test on TK-10 it was 0.113 µM (active); in the test with DU-145 it was 1.06 µM (active); in the test with A549, 0.0582 µM (active); in the test with UO-31 it was 0.583 µM (active). Further, the GI50 in the test with HCT-15 is less than 0.0165 µM; in the test with OVCAR-3, 0.0136 µM (active); with BT-549, 4.39 µM (inactive); with HCC 2998 it was 2.98 µM (inactive); with OVCAR-8, 0.0206 µM (active); in the test on SK-OV-3, 0.043 µM (active). The GI50 with OVCAR-5 and in the test with M14 was < 0.0211 µM (active) in each case.

`C=C(C)C(=O)OC1CC2=CC(CC3(C)OC3C3OC(=O)C(=C)C13)OC2=O` (stereo not given): the GI50 with EKVX was 15 µM (inactive); in the test with UACC-62 it was 9.18 µM (inactive); in the test on SF-295, 18.6 µM (inactive); with Malme-3M, 4.23 µM (inactive); in the test on KM12 it was 15.6 µM (inactive); with SF-539, 10.9 µM (inactive). The GI50 in the test on NCI-H226 is 22.2 µM (inactive); with HCT-116 it was 5.01 µM (inactive); in the test on TK-10 it was 7.73 µM (inactive); in the test with DU-145, 23.7 µM (inactive); in the test on A549 it was 18.6 µM (inactive); in the test on UO-31, 13.1 µM (inactive). In addition, the GI50 is 8.07 µM in the test with HCT-15; 10.7 µM (inactive) in the test on OVCAR-3; 11.8 µM (inactive) in the test on BT-549; 20 µM (inactive) with HCC 2998; 9.66 µM (inactive) in the test on OVCAR-8; 18.8 µM (inactive) in the test with SK-OV-3. The GI50 is 20 µM (inactive) in the test on OVCAR-5 and 4.41 µM (inactive) with M14.

For `CCCN(CCCCC(NC(C)=O)C(=O)NCc1ccccc1)C(=O)N(CCCl)N=O` (stereo not given), the GI50 was > 100 µM (inactive) in the test with EKVX; 11.7 µM (inactive) in the test with UACC-62; 20.9 µM (inactive) in the test with SF-295; > 100 µM (inactive) in the test on Malme-3M; > 100 µM (inactive) with KM12; 8.55 µM (inactive) with SF-539. The GI50 in the test on NCI-H226 is > 77.8 µM (inactive); in the test on HCT-116, 60.3 µM (inactive); in the test with TK-10, > 100 µM (inactive); in the test with DU-145, 27.2 µM (inactive); in the test with A549, 32.3 µM (inactive); in the test on UO-31, 84.1 µM (inactive). In addition, the GI50 is more than 100 µM in the test on HCT-15; > 100 µM (inactive) with OVCAR-3; 75.7 µM (inactive) in the test with BT-549; > 58.9 µM (inactive) with HCC 2998; > 89.7 µM (inactive) with OVCAR-8; > 100 µM (inactive) with SK-OV-3. In addition, the results for the GI50 in the test on OVCAR-5 and with M14 were > 100 µM (inactive) and 59.6 µM (inactive), respectively.

Turning to `O=C(O[C@H]1CCN2C[C@H]3C[C@H](CN4C(=O)CCC[C@H]34)[C@@H]2C1)c1ccc(O)cc1`, the GI50 in the test on EKVX, with UACC-62, in the test with SF-295, in the test with Malme-3M, in the test on KM12 and with SF-539 was > 100 µM (inactive) throughout. The GI50 in the test on NCI-H226, in the test on HCT-116, in the test on TK-10, in the test on DU-145, in the test on A549 and in the test with UO-31 was > 100 µM (inactive) in each case. Besides, the GI50 in the test with HCT-15 is more than 100 µM; with OVCAR-3, > 100 µM (inactive); with BT-549, > 100 µM (inactive); with HCC 2998, > 100 µM (inactive); with OVCAR-8, > 100 µM (inactive); in the test with SK-OV-3 it was > 100 µM (inactive). For the same compound, the GI50 in the test with OVCAR-5 and in the test with M14 was > 100 µM (inactive) in each case.

As to `CCN1c2nc3ccccc3nc2N(CC)c2nc3ccccc3nc21`, the GI50 was 19.1 µM (inactive) with EKVX; 39.2 µM (inactive) with UACC-62; 39.7 µM (inactive) in the test on SF-295; 70.8 µM (inactive) with Malme-3M; 39.5 µM (inactive) in the test with KM12; 25.8 µM (inactive) with SF-539. Further, the GI50 with NCI-H226 was 51.8 µM (inactive); with HCT-116, 26.9 µM (inactive); with TK-10 it was 52.6 µM (inactive); in the test with DU-145 it was 65.8 µM (inactive); in the test on A549, 88.7 µM (inactive); with UO-31 it was 96.6 µM (inactive). Moreover, the GI50 is 34.1 µM in the test with HCT-15; 41.2 µM (inactive) in the test on OVCAR-3; 80.5 µM (inactive) in the test with BT-549; 50.5 µM (inactive) in the test with HCC 2998; 60.1 µM (inactive) with OVCAR-8; > 100 µM (inactive) in the test with SK-OV-3. In addition, the GI50 in the test on OVCAR-5 was > 100 µM (inactive); in the test with M14, 61.9 µM (inactive).

For `CC(=O)C1=C(C)N(c2ccc(C)cc2)C2(O)C3=C(C(=O)c4ccccc4C3=O)C(O)=CC12Cl` (stereo not given), the GI50 in the test on EKVX is 54.1 µM (inactive); in the test on UACC-62 it was 5.11 µM (inactive); with SF-295, 5.81 µM (inactive); in the test with Malme-3M it was 10.5 µM (inactive); in the test with KM12 it was 5.37 µM (inactive); with SF-539, 12.2 µM (inactive). The GI50 in the test with NCI-H226 was 43 µM (inactive); in the test with HCT-116 it was 30.8 µM (inactive); with TK-10 it was 28.4 µM (inactive); in the test on DU-145, 24.7 µM (inactive); in the test on A549, 17.5 µM (inactive); with UO-31, 11.1 µM (inactive). The GI50 with HCT-15 is 19.8 µM; with OVCAR-3, 4.76 µM (inactive); with BT-549, 15 µM (inactive); with HCC 2998 it was 12.7 µM (inactive); in the test with OVCAR-8, 14.1 µM (inactive); in the test on SK-OV-3, 55.1 µM (inactive). Besides, the results for the GI50 in the test on OVCAR-5 and in the test with M14 were 25.5 µM (inactive) and 40.7 µM (inactive), respectively.

As for `O=C(CC1(O)C(=O)Nc2c(Cl)cc(Cl)cc21)c1ccc(Br)cc1Br` (stereo not given), the GI50 in the test on EKVX was 19 µM (inactive); with UACC-62, 12.9 µM (inactive); in the test on SF-295 it was 20 µM (inactive); in the test on Malme-3M, 11.5 µM (inactive); in the test on KM12 it was 12.9 µM (inactive); in the test on SF-539, 14.6 µM (inactive). In addition, the GI50 is 19 µM (inactive) in the test with NCI-H226; 4.31 µM (inactive) in the test on HCT-116; 18.1 µM (inactive) with TK-10; 16.3 µM (inactive) in the test with DU-145; 22.2 µM (inactive) with A549; 16 µM (inactive) in the test on UO-31. The GI50 in the test on HCT-15 was 8.57 µM; in the test with OVCAR-3, 18.7 µM (inactive); in the test with BT-549, 10.5 µM (inactive); in the test on HCC 2998, 16.7 µM (inactive); in the test with OVCAR-8, 7.98 µM (inactive); in the test with SK-OV-3, 21.5 µM (inactive). Further, the figures for the GI50 in the test on OVCAR-5 and with M14 were 17.7 µM (inactive) and 5.96 µM (inactive), respectively.
